This is an account of results in ChEMBL document CHEMBL3137667, “[Drug-induced liver injury; fourteenth updated edition of the bibliographic database of liver injuries and related drugs]” (Gastroenterol Clin Biol, 2004).

Where a SMILES comes first, the peptide text is derived from it. Bridges are numbered along the chain shown (N, C = ends). [ ]: non-standard residue; d: D form.

For series [1] the following is noted: human.
The conditions of series [2]: human, serum.
The conditions of series [3]: human. The source holds these as a separate data set.
The conditions of series [4]: human. This is another data set of the same source.
The conditions of series [5]: human. This is another data set of the same source.
A short description of series [6]: Times to onset, minimal and maximal, observed in the indexed observations. [column 'DELAI' in source]. As to conditions: human.
Series [7] can be described thus: Comments (NB not yet translated). [column 'COMMENTAIRES' in source]. To be noted: human.
The conditions of series [8]: human. This is another data set of the same source.
Series [9] is described as follows: Highest frequency of moderate liver toxicity observed during clinical trials, expressed as a percentage. [column '% BIOL' in source]. As to conditions: human.
The nature of series [10]: Highest frequency of acute liver toxicity observed during clinical trials, expressed as a percentage. [column '% AIGUE' in source]. As to conditions: human.
The conditions of series [11]: human. This is another data set of the same source.
The conditions of series [12]: human. The source holds these as a separate data set.
The conditions of series [13]: human, serum, 4383 h.
For series [14] the following is noted: human, serum. This is another data set of the same source.
The conditions of series [15]: human. This is another data set of the same source.
The conditions of series [16]: human. The source holds these as a separate data set.
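Throughout, for Hepatotoxicity (association with vascular disease): count of indexed literature references reporting vascular liver injury in humans, e.g. peliosis hepatitis, hepatic veno-occlusive disease or Budd-Chiari syndrome.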
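Throughout, for Hepatotoxicity (benign tumour): value is a count of indexed literature references citing a benign tumour confirmed by histopathology.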
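Throughout, for Hepatotoxicity (choleostasis): human cholestatic liver injury, shown by histopathology or by peak ALT or AST elevation over alkaline phosphatase ratio below 2, value counts indexed literature reports.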
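Throughout, for Hepatotoxicity (chronic liver disease): chronic liver injury confirmed by histopathology or persistently raised serum aminotransferase activity beyond 6 months, value given as the count of indexed literature references.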
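Throughout, for Hepatotoxicity (cirrhosis): value is a count of indexed literature references reporting cirrhosis confirmed by histopathology.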
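Throughout, for Hepatotoxicity (cytolytic): human cytolytic liver injury, shown by histopathology or by a ratio above 5 of peak ALT or AST elevation to alkaline phosphatase elevation, value counts indexed references.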
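Throughout, for Hepatotoxicity (granulomatous hepatitis): value is a count of indexed literature references reporting granulomatous liver disease confirmed by histopathology.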
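Throughout, for Hepatotoxicity (malignant tumour): malignant tumour confirmed by histopathology, value gives the count of indexed literature references reporting it.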
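Throughout, for Hepatotoxicity (severe hepatitis): human clinical data: severe hepatitis, meaning potentially life-threatening liver failure or clinically observed cases, the value counts how many indexed literature references report it.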
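Throughout, for Hepatotoxicity (steatosis): steatosis confirmed by histopathology, value is the count of indexed references.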

As for `CC(C)(Oc1ccc(C2CC2(Cl)Cl)cc1)C(=O)O` (stereo unspecified) [CIPROFIBRATE], the “Hepatotoxicity (cirrhosis)” value in series [1] is 1. Also, the “Hepatotoxicity (moderate)” value is 7 in series [2] and 7.7% in series [9]. For the same compound, the “Hepatotoxicity (cytolytic)” value in series [3] was 2. Moreover, the “Hepatotoxicity (granulomatous hepatitis)” value in series [4] was 0. In [5], the “Hepatotoxicity (severe hepatitis)” value was 1. Also, the “Hepatotoxicity (time to onset)” value in [6] stood at 24 days - 15 months. The “Hepatotoxicity (comment)” value in [7] is “AC_ANTI-N”. In [8], the “Hepatotoxicity (steatosis)” value is reported as 0. Also, the “Hepatotoxicity (acute)” value is listed as 0% in series [10] and 3 in [14]. The “Hepatotoxicity (benign tumour)” value in series [11] was 0. Moreover, the “Hepatotoxicity (malignant tumour)” value in [12] stood at 0. The “Hepatotoxicity (chronic liver disease)” value in series [13] was found to be 1. Moreover, the “Hepatotoxicity (choleostasis)” value in series [15] turned out to be 1. For the same compound, the “Hepatotoxicity (association with vascular disease)” value in series [16] amounted to 0.

As to `CC1=C(C/C=C(\C)CCC[C@H](C)CCC[C@H](C)CCCC(C)C)C(=O)c2ccccc2C1=O` [PHYTONADIONE], the “Hepatotoxicity (cirrhosis)” value in series [1] worked out at 0. Further, the “Hepatotoxicity (moderate)” value in series [2] was 0; in series [9] it was 0%. In series [3], the “Hepatotoxicity (cytolytic)” value amounted to 0. The “Hepatotoxicity (granulomatous hepatitis)” value in series [4] is reported as 0. Besides, the “Hepatotoxicity (severe hepatitis)” value in [5] stood at 0. In series [7], the “Hepatotoxicity (comment)” value was “ICTERE_NEONATAL”. In addition, the “Hepatotoxicity (steatosis)” value in series [8] is recorded as 0. Also, the “Hepatotoxicity (acute)” value in series [10] was found to be 0%; in [14], 5. For the same compound, the “Hepatotoxicity (benign tumour)” value in series [11] amounted to 0. The “Hepatotoxicity (malignant tumour)” value in series [12] is listed as 0. The “Hepatotoxicity (chronic liver disease)” value in series [13] amounted to 0. For the same compound, in series [15], the “Hepatotoxicity (choleostasis)” value turned out to be 0. Moreover, the “Hepatotoxicity (association with vascular disease)” value in series [16] came to 0.

As for `CC(C)[C@@H]1NC(=O)[C@H](CCCCN)NC(=O)[C@@H](Cc2c[nH]c3ccccc23)NC(=O)[C@H](Cc2ccc(O)cc2)NC(=O)[C@@H](NC(=O)[C@H](N)Cc2ccc3ccccc3c2)CSSC[C@@H](C(=O)N[C@H](C(N)=O)[C@@H](C)O)NC1=O` [LANREOTIDE], the “Hepatotoxicity (cirrhosis)” value in series [1] is 0. Moreover, the figures for the “Hepatotoxicity (moderate)” value in series [2] and in [9] were 0 and 0%, respectively. Moreover, in series [3], the “Hepatotoxicity (cytolytic)” value turned out to be 0. The “Hepatotoxicity (granulomatous hepatitis)” value in [4] is reported as 0. In addition, the “Hepatotoxicity (severe hepatitis)” value in [5] is 0. The “Hepatotoxicity (comment)” value in [7] was “BOUE_BILIAIRE LITHIASE_VESICULAIRE ENCEPHALOPATHIE”. For the same compound, the “Hepatotoxicity (steatosis)” value in series [8] was found to be 0. Also, the figures for the “Hepatotoxicity (acute)” value in [10] and in [14] were 0% and 0, respectively. The “Hepatotoxicity (benign tumour)” value in [11] came out at 0. Also, the “Hepatotoxicity (malignant tumour)” value in series [12] is 0. In addition, in series [13], the “Hepatotoxicity (chronic liver disease)” value was found to be 0. Further, the “Hepatotoxicity (choleostasis)” value in series [15] was found to be 0. For the same compound, the “Hepatotoxicity (association with vascular disease)” value in [16] came to 0.

Take `CC(C)[C@@H]1NC(=O)[C@H](CCCCN)NC(=O)[C@@H](Cc2c[nH]c3ccccc23)NC(=O)[C@H](Cc2ccc(O)cc2)NC(=O)[C@@H](NC(=O)[C@H](N)Cc2ccccc2)CSSC[C@@H](C(=O)N[C@@H](Cc2c[nH]c3ccccc23)C(N)=O)NC1=O` [VAPREOTIDE] (H-[dF]CY[dW]KVCW-NH2; disulfide 2-7): the “Hepatotoxicity (cirrhosis)” value in series [1] is listed as 0. Also, the “Hepatotoxicity (moderate)” value in series [2] was found to be 1; in series [9], 4.8%. Moreover, the “Hepatotoxicity (cytolytic)” value in series [3] is reported as 0. The “Hepatotoxicity (granulomatous hepatitis)” value in [4] came out at 0. The “Hepatotoxicity (severe hepatitis)” value in [5] was determined as 0. For the same compound, the “Hepatotoxicity (comment)” value in series [7] was “LITHIASE”. Besides, in series [8], the “Hepatotoxicity (steatosis)” value came to 0. In addition, the “Hepatotoxicity (acute)” value was determined as 0% in series [10] and 0 in [14]. Besides, the “Hepatotoxicity (benign tumour)” value in [11] is given as 0. In [12], the “Hepatotoxicity (malignant tumour)” value is 0. For the same compound, the “Hepatotoxicity (chronic liver disease)” value in [13] is given as 0. In addition, in series [15], the “Hepatotoxicity (choleostasis)” value is recorded as 0. Further, in series [16], the “Hepatotoxicity (association with vascular disease)” value is on record as 0.

`COc1cc([C@@H]2c3cc4c(cc3[C@@H](O[C@@H]3O[C@@H]5CO[C@@H](c6cccs6)O[C@H]5[C@H](O)[C@H]3O)[C@H]3COC(=O)[C@H]23)OCO4)cc(OC)c1O` [TENIPOSIDE]: the “Hepatotoxicity (cirrhosis)” value in series [1] is 0. Further, the “Hepatotoxicity (moderate)” value was found to be 4 in series [2] and 23.8% in series [9]. Moreover, the “Hepatotoxicity (cytolytic)” value in [3] was 0. The “Hepatotoxicity (granulomatous hepatitis)” value in series [4] came out at 0. In addition, the “Hepatotoxicity (severe hepatitis)” value in series [5] amounted to 0. Further, the “Hepatotoxicity (comment)” value in series [7] is recorded as “HNR”. Besides, the “Hepatotoxicity (steatosis)” value in series [8] came to 0. Further, the “Hepatotoxicity (acute)” value in [10] turned out to be 0%; in series [14] it was 0. Besides, the “Hepatotoxicity (benign tumour)” value in series [11] came out at 0. In [12], the “Hepatotoxicity (malignant tumour)” value stood at 0. In series [13], the “Hepatotoxicity (chronic liver disease)” value is 0. For the same compound, in series [15], the “Hepatotoxicity (choleostasis)” value is recorded as 0. Also, the “Hepatotoxicity (association with vascular disease)” value in [16] stood at 1.

For the compound `CO/N=C(\C(=O)N[C@@H]1C(=O)N2C(C(=O)O)=C(CSc3nnnn3C)CS[C@H]12)c1csc(N)n1` [CEFMENOXIME], in [1], the “Hepatotoxicity (cirrhosis)” value amounted to 0. Besides, the “Hepatotoxicity (moderate)” value in [2] came out at 11; in series [9], 12.2%. Besides, the “Hepatotoxicity (cytolytic)” value in series [3] came out at 0. Besides, the “Hepatotoxicity (granulomatous hepatitis)” value in series [4] is on record as 1. In series [5], the “Hepatotoxicity (severe hepatitis)” value was determined as 0. Further, the “Hepatotoxicity (comment)” value in [7] is on record as “CHOLESTASE_PROLONGEE”. In addition, the “Hepatotoxicity (steatosis)” value in series [8] was 0. Besides, the “Hepatotoxicity (acute)” value in series [10] was 0%; in [14] it was 1. Moreover, the “Hepatotoxicity (benign tumour)” value in [11] was found to be 0. For the same compound, the “Hepatotoxicity (malignant tumour)” value in series [12] was 0. Further, the “Hepatotoxicity (chronic liver disease)” value in series [13] worked out at 0. In addition, in series [15], the “Hepatotoxicity (choleostasis)” value was found to be 1. Further, the “Hepatotoxicity (association with vascular disease)” value in series [16] is listed as 0.

On to `O=C1Nc2ccc(Cl)cc2C(c2ccccc2Cl)=NC1O` (stereo unspecified) [LORAZEPAM], for which the “Hepatotoxicity (cirrhosis)” value in series [1] was determined as 0. For the same compound, the “Hepatotoxicity (moderate)” value in [2] amounted to 1; in series [9] it was 0%. In [3], the “Hepatotoxicity (cytolytic)” value worked out at 0. For the same compound, the “Hepatotoxicity (granulomatous hepatitis)” value in [4] stood at 0. Moreover, the “Hepatotoxicity (severe hepatitis)” value in series [5] is 0. The “Hepatotoxicity (comment)” value in series [7] is “I/PYRIMETHAMINE”. In addition, the “Hepatotoxicity (steatosis)” value in series [8] came out at 0. The “Hepatotoxicity (acute)” value in series [10] was found to be 0%; in series [14], 1. For the same compound, the “Hepatotoxicity (benign tumour)” value in [11] came to 0. For the same compound, in series [12], the “Hepatotoxicity (malignant tumour)” value is on record as 0. The “Hepatotoxicity (chronic liver disease)” value in series [13] was found to be 0. The “Hepatotoxicity (choleostasis)” value in series [15] turned out to be 0. For the same compound, the “Hepatotoxicity (association with vascular disease)” value in [16] is listed as 0.

As for ANTIMONY (III) ION, the “Hepatotoxicity (cirrhosis)” value in series [1] turned out to be 0. In addition, the “Hepatotoxicity (moderate)” value is reported as 0 in [2] and 0% in series [9]. For the same compound, the “Hepatotoxicity (cytolytic)” value in series [3] was found to be 1. The “Hepatotoxicity (granulomatous hepatitis)” value in series [4] came out at 0. In series [5], the “Hepatotoxicity (severe hepatitis)” value is recorded as 0. In addition, in [7], the “Hepatotoxicity (comment)” value is “HEPATONEPHRITE”. Also, the “Hepatotoxicity (steatosis)” value in series [8] is given as 0. Besides, the entries for the “Hepatotoxicity (acute)” value in [10] and in series [14] were 0% and 1, respectively. Further, the “Hepatotoxicity (benign tumour)” value in [11] came to 0. In series [12], the “Hepatotoxicity (malignant tumour)” value worked out at 0. In series [13], the “Hepatotoxicity (chronic liver disease)” value came to 0. Moreover, in series [15], the “Hepatotoxicity (choleostasis)” value turned out to be 0. For the same compound, the “Hepatotoxicity (association with vascular disease)” value in [16] came out at 0.

For the compound `C[C@]12CCC(=O)C=C1CC[C@@H]1[C@@H]2C(=O)C[C@@]2(C)[C@H]1CC[C@]2(O)C(=O)CO` [CORTISONE], the “Hepatotoxicity (cirrhosis)” value in [1] is 0. For the same compound, the “Hepatotoxicity (moderate)” value in series [2] is reported as 0; in series [9], 0%. Also, the “Hepatotoxicity (cytolytic)” value in [3] is recorded as 0. The “Hepatotoxicity (granulomatous hepatitis)” value in series [4] turned out to be 0. The “Hepatotoxicity (severe hepatitis)” value in [5] was 0. Besides, the “Hepatotoxicity (comment)” value in [7] was “AGGRAVATION_HEPATITE_VIRALE”. In addition, the “Hepatotoxicity (steatosis)” value in [8] is 5. Moreover, the “Hepatotoxicity (acute)” value worked out at 0% in series [10] and 0 in [14]. Besides, in [11], the “Hepatotoxicity (benign tumour)” value stood at 0. Also, the “Hepatotoxicity (malignant tumour)” value in series [12] was 0. In addition, in [13], the “Hepatotoxicity (chronic liver disease)” value stood at 0. In addition, the “Hepatotoxicity (choleostasis)” value in series [15] is 0. Further, the “Hepatotoxicity (association with vascular disease)” value in series [16] is listed as 2.

Regarding `CN(C)C(=O)Oc1cc(OC(=O)N(C)C)cc(C(O)CNC(C)(C)C)c1` (stereo unspecified) [BAMBUTEROL], the “Hepatotoxicity (cirrhosis)” value in series [1] is 0. The results for the “Hepatotoxicity (moderate)” value in series [2] and in [9] were 1 and 0%, respectively. In series [3], the “Hepatotoxicity (cytolytic)” value is recorded as 0. For the same compound, the “Hepatotoxicity (granulomatous hepatitis)” value in series [4] is given as 0. Also, the “Hepatotoxicity (severe hepatitis)” value in [5] was found to be 0. Also, the “Hepatotoxicity (comment)” value in series [7] is listed as “VOIR_TERBUTALINE”. In addition, the “Hepatotoxicity (steatosis)” value in series [8] was 0. Moreover, the “Hepatotoxicity (acute)” value in series [10] stood at 0%; in series [14], 0. The “Hepatotoxicity (benign tumour)” value in [11] is recorded as 0. Besides, the “Hepatotoxicity (malignant tumour)” value in [12] amounted to 0. Besides, the “Hepatotoxicity (chronic liver disease)” value in series [13] is listed as 0. Moreover, the “Hepatotoxicity (choleostasis)” value in series [15] amounted to 0. Further, the “Hepatotoxicity (association with vascular disease)” value in [16] is listed as 0.
